For one series, the target named is T1, Kir2.1 (Homo sapiens, UniProt P63252).
T1 construct: host or cells: hepatocytes of wildtype mice in vivo, AAV8 with TBG promoter
T1 sequence (P63252 1-427): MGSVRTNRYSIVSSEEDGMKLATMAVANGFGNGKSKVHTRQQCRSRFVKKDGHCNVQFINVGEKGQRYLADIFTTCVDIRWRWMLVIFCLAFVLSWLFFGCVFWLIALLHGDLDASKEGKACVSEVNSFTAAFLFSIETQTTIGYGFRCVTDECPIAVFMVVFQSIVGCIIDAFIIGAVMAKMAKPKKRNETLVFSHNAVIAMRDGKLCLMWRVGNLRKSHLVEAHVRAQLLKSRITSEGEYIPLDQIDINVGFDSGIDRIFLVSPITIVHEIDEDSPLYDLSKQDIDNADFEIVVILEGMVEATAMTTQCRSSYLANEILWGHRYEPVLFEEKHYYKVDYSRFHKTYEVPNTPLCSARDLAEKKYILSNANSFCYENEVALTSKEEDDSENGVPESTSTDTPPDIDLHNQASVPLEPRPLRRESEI
The experiment in a line: Barium induced change in hepatocyte membrane potential in Kir2.1 and eGFP expressing mice. As to conditions: 50 μM bath application. Format: in vivo, mouse.

A further series deals with Na+/K+ ATPase. Nature of the series: liver slice GABA release with Na+/K+ ATPase inhibitor. Format: cell-based, mouse. As to conditions: 1 mM, bath application. An excerpt: Two liver slices were taken from each mouse.
Series [1] relates to PSEM89S ligand-gated depolarizing channel. The experiment in a line: PSEM89S ligand IP in mice with cre-dependent hepatic depolarizing channel: serum insulin, glucose. Format: in vivo, mouse. The conditions noted are these: 30 mg/kg IP. From the text:
(§1) The depolarizing channel (PSAM^L141F,Y115F-5 HT3HC), originally engineered by Dr. Scott Sternsons group, was made by mutating the acetylcholine binding domain of a chimeric channel that included the binding domain of the α7 nicotinic acetylcholine receptor and the ion pore domain of the serotonin receptor 3a. The ligand binding domain mutations (Leu^141→Phe and Tyr^115→Phe) limited the agonist action of acetylcholine and allowed for stimulation by a pharmacologically selective effector molecule PSEM89S. The exogenous ligand PSEM89S opens the serotonin receptor 3a channel allowing Na^+, K^+, and Ca^++ passage into the cell and membrane depolarization. AAV8 viral vectors were used for plasmid delivery in all the reported studies and were synthesized by the Penn Vector Core. Hepatic specific expression of the depolarizing channel was achieved through two different methods. First, expression of a cre-recombinase dependent depolarizing channel was driven by a globally expressed CAG promoter. LoxP sites limited expression to cre-recombinase expressing tissue, and tail vein injection of 1×10^10 viral genome copies established hepatocyte expression in albumin-cre but not wildtype mice. Second, a separate AAV8 viral vector, induced hepatic specific expression of the same depolarizing channel by driving expression using the thyroxine binding globulin (TBG) promoter. Tail vein injection of 1×10^11 viral genome copies established hepatocyte expression (FIG. 18C). The thyroxine binding globulin promoter also drove hepatic expression of the hyperpolarizing, inward-rectifier K^+ channel, Kir2.1. Tail vein injection of 1×10^11 viral genome copies established hepatocyte specific expression (FIG. 19A). To confirm channel expression and tissue specificity, all viral vector plasmids encoded for enhanced green fluorescent protein (eGFP).
All studies in virus injected mice were conducted at least 5 days post virus injection to allow for maximal channel expression. Individually housed mice were intraperitoneally injected with the ligand for the depolarizing channel (PSEM89S; 30 mg/kg; 0.1 mL/10 g body weight) or PBS (0.1 mL/10 g body weight).
Studies conducted in mice injected with the cre-dependent depolarizing channel virus took place at 8 am. […]
(§2) Within 2 hours of collection, blood was left to clot at room temperature for 20 minutes. […] Serum glucose was analyzed by colorimetric assay (Cat. #G7519, Pointe Scientific Inc., Canton Mich.). Serum insulin was analyzed by enzyme-linked immunosorbent assay (ELISA; Cat. #80-INSMSU-E01,E10, Alpco, Salem, N.H.). Serum glucagon was analyzed by enzyme-linked immunosorbent assay (ELISA; Cat. #10-1281-01, Mercodia, Uppsala, Sweden) from tail vein blood collected at 9 am from fed mice (Vagotomy study) or after a 4 hour fast at 1 PM (Kir2.1 study).

Series [2] has the same test system. Nature of the series: PSEM89S ligand IP before oral glucose in mice with TBG promoter driven depolarizing channel. It is filed as in vivo, mouse. As to conditions: TBG channel expressing mice.
Description: as §1, with “The thyroxine binding globulin promoter also drove hepatic expression of the hyperpolarizing, inward-rectifier K^+ channel, Kir2.1. Tail vein injection of 1×10^11 viral genome copies established hepatocyte specific expression (FIG. 19A). To confirm channel expression and tissue specificity, all viral vector plasmids encoded for enhanced green fluorescent protein (eGFP).” left out
as §2

Series [3] has the same test system. Format: in vivo, mouse.
Description: as §1, with “Tail vein injection of 1×10^11 viral genome copies established hepatocyte specific expression (FIG. 19A). To confirm channel expression and tissue specificity, all viral vector plasmids encoded for enhanced green fluorescent protein (eGFP).” left out
Simultaneous in vivo recordings were performed of hepatocyte membrane potential and hepatic afferent vagal nerve firing activity in anesthetized (isoflurane) mice to directly assess the effect of hepatocyte depolarization on hepatic afferent vagal nerve activity. […] After placement and sealing of the hook electrode, 45-60 minutes of basal nerve activity was monitored/recorded with pClamp software (version 10.2; Molecular Devices) until nerve activity stabilized, after which, treatments began. […]

For series [4], the system named is high fat diet-induced obese mice. The experiment in a line: GABA-T inhibitors (8 mg/day IP) in HFD-induced obese mice: body weight, serum insulin/glucose/glucagon, OGTT, ITT. It is filed as in vivo, mouse. The procedure: (§3) All animal studies were conducted using male wildtype C57BL/6J mice purchased from Jackson Laboratories or bred in-house (Bar Harbor, Me.). Mice were kept on a 14-hour light/10-hour dark schedule and housed 3-5 mice per cage until 1 week prior to study initiation, at which point animals were individually housed. Studies were conducted in lean chow fed mice (7013 NIH-31, Teklad WI, 3.1 kcal/g, 18% kcal from fat, 59% kcal from carbohydrate, 23% kcal from protein) at 12-16 weeks of age. Studies in diet-induced obese mice dosed intraperitoneally with GABA transaminase inhibitors, mice treated with ethanolamine-O-sulfate in their drinking water, and mice treated with GABA-T targeted or scramble control antisense oligonucleotides (ASO) were performed after 8-10 weeks on a high fat diet (TD 06414, Teklad WI, 5.1 kcal/g, 60.3% kcal from fat, 21.3% kcal from carbohydrate, 18.4% kcal from protein; 20-26 weeks of age). For ASO studies, mice were stratified by body weight and assigned to an injection treatment (control or GABA-T). Studies in obese vagotomy and sham mice were performed after 9 weeks of high fat diet feeding. Unless fasted, mice had ad libitum access to food and water. All studies were approved by The University of Arizona Institutional Animal Care and Use Committee.
(§4) Wildtype lean and obese mice were randomly divided into treatment groups and dosed daily with 8 mg of ethanolamine-O-sulfate (EOS; Sigma-Aldrich, St. Louis, Mo.), vigabatrin (United States Pharmacopeia, Rockville, Md.) or PBS. Obese sham and vagotomy mice were dosed daily with 8 mg of EOS. In all cases, basal bleeds were taken prior to initiation of an ITT. Lean mice received treatment by oral gavage (0.3 mL/mouse) while obese mice were treated by intraperitoneal injection (0.3 mL/mouse). Pre-treatment studies were conducted in the week immediately prior to beginning drug administration. Daily doses took place at 9 am each day and oral glucose tolerance tests (OGTT) and insulin tolerance tests (ITT) were performed on the third and fourth days of treatment in lean mice, respectively. In wildtype obese mice, OGTT and ITT were performed on the fourth day of treatment in separate cohorts. On the fifth day of treatment, 2DG clearance studies were performed. In sham/vagotomy mice, OGTT and ITT were performed on the fourth and fifth day of treatment, respectively. After a 2-week washout period without treatment injection, a basal bleed and bleed 15 minutes after an oral glucose gavage ([…]) to determine oral glucose stimulated insulin secretion were performed.
(§5) Oral glucose (2.5 g/kg; 0.1 mL/10 g body weight; Chem-Impex Int'l Inc., Wood Dale, Ill.) was given to 4 hour fasted individually housed mice. All glucose tolerance tests began at […] and glucose was measured in whole blood, collected from the tail vein, by glucometer (Manufacture #D2ASCCONKIT, Bayer, Leverkusen, Germany) at 0, 15, 30, 60, 90, and 120 minutes after glucose gavage. Blood for serum insulin (oral glucose stimulated insulin secretion; OGSIS) and glucose determination was collected from the tail vein 15 minutes following glucose administration.
(§6) Intraperitoneal insulin (0.5 U/kg; 0.1 mL/10 g body weight; Sigma Aldrich, St. Louis, Mo.) was given to 4 hour fasted individually housed mice. All insulin tolerance tests began at […] and glucose was measured in whole blood, collected from the tail vein, by glucometer (Manufacture #D2ASCCONKIT, Bayer, Leverkusen, Germany) at 0, 30, 60, 90, and 120 minutes after insulin injection.
(§7) Within 2 hours of collection, blood was left to clot at room temperature for 20 minutes. Thereafter, the blood was centrifuged at 3,000×g for 30 minutes at 4° C. and serum was collected. Serum was stored at −80° C. until metabolite and hormone analyses. A colorimetric assay was used to analyze serum glucose (Cat. #G7519, Pointe Scientific Inc., Canton Mich.). Serum insulin was analyzed by enzyme-linked immunosorbent assay (ELISA; Cat. #80-INSMSU-E01,E10, Alpco, Salem, N.H.). […]

The subject of the next series is lean mice. Nature of the series: GABA-T inhibitors (8 mg/day oral gavage) in lean mice: glucose homeostasis. Format: in vivo, mouse. The conditions noted are these: 8 mg/day. On the procedure:
as §3, §4, §5, §6, §7

Series [5] concerns lean mice and obese control or GABA-T ASO treated mice. The experiment in a line: leptin sensitivity (single 6 am leptin injection): food intake, body weight. It is filed as in vivo, mouse. On the procedure:
Lean mice or diet-induced obese control or GABA-T targeted ASO treated mice received an intraperitoneal injection of phosphate buffered saline (PBS; 0.1 mL/10 g body weight) on day 1 and leptin (2 mg/kg; 0.1 mL/10 g body weight; CAT#498-OB, R&D Systems, Minneapolis, Minn.) on day 2 at 6 am. Mice were not fasted before injections. Food and body weight were measured every day at 6 am and 6 pm.

[6] abbreviates: albumin-cre channel expressing mice.
Where [7] appears, read: 30 mg/kg IP 10 minutes before oral glucose 2.5 g/kg.
Setting [8] is: 8 mg/day IP, four days, relative to pre-treatment.
[9] abbreviates: chow fed mice, single 6AM injection.

`[Ba+2]` [Ba2+, Barium] displayed a depolarization of hepatocytes at Kir2.1 (Kir2.1 expressing mice) of 6.86±1.54 mV. Further, the “change in hepatocyte membrane potential” value on Kir2.1 (control eGFP expressing mice) is reported as −0.62±1.86 mV.
Take `C[C@@H]1O[C@@H](O[C@H]2C[C@@H](O)[C@]3(CO)[C@H]4[C@H](O)C[C@]5(C)[C@@H](C6=CC(=O)OC6)CC[C@]5(O)[C@@H]4CC[C@]3(O)C2)[C@H](O)[C@H](O)[C@H]1O` [Ouabain]: the “increase of liver slice GABA release (μmol/mg DNA)” value in the series with Na+/K+ ATPase is “more than 40%”.
With `COc1ccc(OC)c(C(=O)N[C@@H]2CN3CCC2CC3)c1.O=C(O)C(F)(F)F` [PSEM89S ligand], in series [1] (setting [6]), the serum glucose entry is reported as “decreased” and the serum insulin result was “more than doubled”. Besides, the “glucose:insulin ratio” value in series [1] (albumin-cre mice) is recorded as “decreased”. Further, the “serum insulin, glucose, or glucose:insulin ratio” value in series [1] (wildtype mice) is “did not alter”. Moreover, in series [2] (setting [7]), the “glucose:insulin ratio” value was “lowered” and the serum insulin result is “elevated”. Moreover, in series [2] (30 mg/kg IP), the “rise in serum glucose following oral glucose gavage” value was “did not affect”. Moreover, the HVAN firing activity result in series [3] (30 μM bath application, albumin-cre channel expressing mice) is listed as “decreased”. In addition, in series [3] (mouse, in vivo), the “hepatocyte depolarization at 10 minutes” value is recorded as 17.0±5.4 mV and the maximal hepatocyte depolarization is 28±5.4 mV.
Turning to `C=CC(N)CCC(=O)O` (stereo not shown) [vigabatrin], in series [4] (setting [8]), the “glucose:insulin ratio” value is “increased”, the serum glucose result is on record as “decreased” and the serum insulin result was “decreased”. The body weight result in series [4] (8 mg/day IP, through 5 days, vs saline injected mice) is “remained similar”. Besides, the “glucose stimulated serum insulin” value in series [4] (treatment day 4, relative to pre-treatment) was “decreased”. Also, in series [4] (two-weeks washout), the “glucose stimulated serum insulin after washout” value is reported as “markedly increased”; the “serum insulin and glucose:insulin ratio after washout” value was “return of serum insulin and the glucose:insulin ratio to pre-treatment levels”. The “insulin sensitivity assessed by insulin tolerance test (ITT)” value in series [4] (within 4 days of initiating treatment) was “improved”. Moreover, in the series on lean mice, the glucose tolerance result is given as “no effect”, the insulin sensitivity entry is recorded as “no effect” and the serum insulin concentrations result is listed as “no effect”.
Take “leptin: anorexigenic hormone leptin (R&D Systems)”: in series [5] (setting [9]), the body weight entry is recorded as “without affecting”; the “light cycle and 24-hour food intake” value is recorded as “decreased”. Further, the relative weight change entry in series [5] (control or GABA-T ASO obese mice, 2 mg/kg) was “not affected”. The food intake entry in series [5] (obese mice on either ASO treatment, 2 mg/kg single 6AM injection, any timepoint) is recorded as “did not affect”.

Source of the values: patent US20230128194A1, “METHODS AND COMPOSITIONS TO ALTER HEPATIC GABA RELEASE TO TREAT OBESITY-RELATED CONDITIONS” (ARIZONA BOARD OF REGENTS ON BEHALF OF THE UNIVERSITY OF …, priority 2017, published 2023).
